For 57 molecules, Emax and EC50 results are on record in ChEMBL document CHEMBL5385933, “Preparation and Preliminary Structure-Activity Relationship Studies of Schwarzinicine A Analogs as Vasorelaxant Agents” (J Nat Prod, 2024).

In test [1] the test system is Aorta. As to the kind of experiment: Vasorelaxant activity in Sprague-Dawley rat aortic rings assessed as reduction in phenylephrine-induced contractions by measuring maximum efficacy by organ bath assay relative to control. In kind it is functional.
In test [2] the test system is Aorta. As to the kind of experiment: Vasorelaxant activity in Sprague-Dawley rat aortic rings assessed as reduction in phenylephrine-induced contractions by organ bath assay. In kind it is functional, tissue-based.

Regarding `CCCC(Cc1ccccc1)NCCc1ccc(O)cc1` (centres undefined), the Emax with Aorta [1] came out at 111%. Moreover, the EC50 with Aorta [2] was found to be 49 nM.

Regarding `CCCC(Cc1ccccc1)NCCN1CCNCC1` (centres undefined), the Emax in the test with Aorta [1] was 107%. The EC50 in the test with Aorta [2] worked out at 1040 nM.

With `CCCC(Cc1ccc(C)cc1)NCCc1ccc(F)cc1` (centres undefined), the Emax in the test on Aorta [1] was 118%. In addition, the EC50 with Aorta [2] was 1230 nM.

Consider `CCCC(Cc1ccc2c(c1)OCO2)NCCc1ccccc1` (centres undefined), for which the Emax in the test on Aorta [1] came out at 113%. The EC50 in the test with Aorta [2] was 1060 nM.

For `CCCC(CC1CC1)NCCc1ccccc1` (centres undefined), the maximal effect (Emax) in the test on Aorta [1] stood at 116%. Besides, the EC50 in the test with Aorta [2] was found to be 1510 nM.

In the case of `c1ccc(CCNC2Cc3ccccc3C2)cc1`, the Emax with Aorta [1] came out at 113%. The EC50 in the test on Aorta [2] was 200 nM.

As for `CCCC(CCCCc1ccccc1)NCCc1ccccc1` (centres undefined), in the test with Aorta [1], the Emax was found to be 121%. For the same molecule, the EC50 in the test on Aorta [2] worked out at 2020 nM.

`CCCCCCCC(CCC)NCCc1ccccc1` (centres undefined): the Emax in the test with Aorta [1] came to 89.7%. In the test with Aorta [2], the EC50 came out at 1050 nM.

As to `CCCC(Cc1ccccc1)NCCCCc1ccccc1` (centres undefined), the Emax with Aorta [1] was determined as 127%. Also, the EC50 in the test with Aorta [2] was found to be 2740 nM.

Take `c1ccc(CCC(Cc2ccccc2)N(CCc2ccccc2)CCc2ccccc2)cc1` (centres undefined): the Emax in the test on Aorta [1] stood at 68.9%. In addition, in the test on Aorta [2], the concentration giving a half-maximal response (EC50) stood at 1390 nM.

`c1ccc(CCNC2CCc3ccccc3C2)cc1` (centres undefined): in the test with Aorta [1], the maximum response (Emax) is 119%. For the same molecule, the EC50 in the test with Aorta [2] turned out to be 500 nM.

Turning to `CCCC(Cc1ccccc1)NCCc1c[nH]c2ccccc12` (centres undefined), the Emax in the test on Aorta [1] came out at 114%. Also, the EC50 in the test on Aorta [2] came out at 440 nM.

Take `CCCC(Cc1ccc(C)cc1)NCCc1ccccc1` (centres undefined): in the test with Aorta [1], the Emax was found to be 120%. In the test with Aorta [2], the half-maximal effective concentration (EC50) is 2640 nM.

On to `CCCC(Cc1ccccc1)NC1Cc2ccccc2C1` (centres undefined), for which the Emax with Aorta [1] amounted to 114%. Besides, in the test on Aorta [2], the EC50 was found to be 350 nM.

For `CCCC(CC1CCCCC1)NCCC1=CCCCC1` (centres undefined), in the test on Aorta [1], the maximal effect (Emax) is 84.7%. In addition, the EC50 with Aorta [2] stood at 1000 nM.

Take `COc1ccc(CCNC(C)Cc2ccc(OC)c(OC)c2)cc1OC` (centres undefined): the Emax in the test with Aorta [1] amounted to 104%. Also, in the test on Aorta [2], the concentration for a half-maximal effect (EC50) is 2890 nM.

For the molecule `CCC(CCc1ccco1)NCCc1ccccc1` (centres undefined), the Emax in the test with Aorta [1] was 122%. The EC50 in the test with Aorta [2] came out at 180 nM.

On to `CCCC(Cc1cccs1)NCCc1ccccc1` (centres undefined), for which the maximal response (Emax) with Aorta [1] turned out to be 110%. Besides, the EC50 with Aorta [2] was found to be 410 nM.

On to `CCCC(Cc1ccccc1)NC1CC2CCC1C2` (centres undefined), for which the Emax with Aorta [1] is 106%. For the same molecule, the EC50 in the test on Aorta [2] is 480 nM.

Turning to `CCCC(Cc1ccccc1)NCCc1ccccc1` (centres undefined), the Emax with Aorta [1] was 113%. In addition, the EC50 in the test on Aorta [2] was found to be 3060 nM.

Take `CCCC(CC1CCCCC1)NCCc1ccccc1` (centres undefined): in the test on Aorta [1], the Emax was found to be 114%. For the same molecule, in the test with Aorta [2], the EC50 was determined as 1840 nM.

For `CCCC(Cc1ccccc1)NCCC1=CCCCC1` (centres undefined), in the test with Aorta [1], the Emax stood at 117%. In the test on Aorta [2], the EC50 is 2410 nM.

In the case of `CCC(CCCCc1ccccc1)NCCc1ccccc1` (centres undefined), in the test with Aorta [1], the Emax came out at 125%. In the test with Aorta [2], the EC50 came out at 3360 nM.

On to `CCCC(Cc1ccccc1)NCCc1c[nH]cn1` (centres undefined), for which the Emax in the test on Aorta [1] is 122%. Moreover, the EC50 in the test with Aorta [2] is 1370 nM.

Turning to `CCC(CCc1ccccc1)NCCc1ccccc1` (centres undefined), the Emax with Aorta [1] turned out to be 11.5%. Besides, the EC50 in the test on Aorta [2] turned out to be 1240 nM.

Regarding `CCC(CCc1ccc(C#N)cc1)NCCc1ccccc1` (centres undefined), in the test on Aorta [1], the Emax stood at 125%. The EC50 with Aorta [2] worked out at 1960 nM.

Take `Fc1ccc(CCNC(CCc2ccccc2)Cc2ccc(Cl)cc2)cc1` (centres undefined): in the test with Aorta [1], the Emax amounted to 92.2%. In addition, the concentration giving a half-maximal response (EC50) with Aorta [2] was 650 nM.

`CCCC(Cc1ccccc1)NCCN1CCCCC1` (centres undefined): the Emax in the test on Aorta [1] is 110%. Moreover, the EC50 with Aorta [2] is 130 nM.

For the molecule `CCCC(Cc1ccccc1)NCCc1ccccn1` (centres undefined), the Emax in the test with Aorta [1] worked out at 114%. The EC50 with Aorta [2] was determined as 1130 nM.

For `CCC(CCc1ccco1)NCCC1CCCCC1` (centres undefined), the Emax in the test on Aorta [1] turned out to be 106%. For the same molecule, the EC50 with Aorta [2] came to 2120 nM.

For the molecule `CCC(CCc1cccs1)NCCc1ccccc1` (centres undefined), the maximum response (Emax) in the test on Aorta [1] is 120%. The EC50 in the test on Aorta [2] came to 190 nM.

`CCCC(Cc1ccc(Cl)cc1)NCCc1ccc(F)cc1` (centres undefined): in the test on Aorta [1], the Emax amounted to 99.1%. Moreover, the EC50 in the test with Aorta [2] was 1090 nM.

`CCCC(Cc1ccccc1)NCCC#N` (centres undefined): the Emax with Aorta [1] turned out to be 89.5%. Besides, in the test on Aorta [2], the EC50 was 1430 nM.

Take `COc1ccc(CCNC(Cc2ccccc2)Cc2ccccc2)cc1OC`: in the test on Aorta [1], the Emax amounted to 115%. In addition, in the test on Aorta [2], the EC50 was 1860 nM.

In the case of `CCCC(Cc1ccccc1)NC1CC1` (centres undefined), in the test on Aorta [1], the Emax turned out to be 114%. In addition, in the test on Aorta [2], the concentration for a half-maximal effect (EC50) was 2250 nM.

Regarding `COc1ccc(CCC(Cc2ccc(OC)c(OC)c2)NCCc2ccc(OC)c(OC)c2)cc1` (centres undefined), the Emax in the test on Aorta [1] came out at 122%. Further, the EC50 in the test with Aorta [2] turned out to be 2990 nM.

As to `c1ccc(CCNC(CCc2ccccc2)Cc2ccccc2)cc1` (centres undefined), the Emax in the test on Aorta [1] came out at 116%. Besides, the EC50 in the test on Aorta [2] was found to be 2300 nM.

For `CCCC(CC1CCCCC1)NCCC1CCCCC1` (centres undefined), in the test on Aorta [1], the Emax is 83.6%. Further, the EC50 in the test on Aorta [2] was determined as 320 nM.

On to `CCCC(Cc1ccccc1)NCCc1ccc([N+](=O)[O-])cc1` (centres undefined), for which, in the test on Aorta [1], the Emax is 119%. In the test on Aorta [2], the EC50 amounted to 1730 nM.

For `CCCC(Cc1ccc2ccccc2c1)NCCc1ccccc1` (centres undefined), in the test with Aorta [1], the Emax was 115%. Also, the concentration giving a half-maximal response (EC50) in the test with Aorta [2] stood at 1600 nM.

Consider `c1ccc2c(c1)CCC(NC1Cc3ccccc3C1)C2` (centres undefined), for which, in the test with Aorta [1], the Emax was 122%. Moreover, the EC50 with Aorta [2] turned out to be 1320 nM.

As for `CCCC(Cc1ccccc1)NCCc1ccc(OC)cc1` (centres undefined), the Emax with Aorta [1] came out at 114%. In the test on Aorta [2], the EC50 stood at 1280 nM.

As for `CC(=O)N(CCc1ccccc1)C(CCc1ccccc1)Cc1ccccc1` (centres undefined), in the test on Aorta [1], the Emax was 82.9%. For the same molecule, the concentration for a half-maximal effect (EC50) with Aorta [2] turned out to be 20300 nM.

With `CCCC(Cc1ccccc1)NCCc1ccc(F)cc1` (centres undefined), the Emax in the test on Aorta [1] is 120%. The EC50 in the test on Aorta [2] was 3830 nM.

For the molecule `CCCC(Cc1csc2ccccc12)NCCc1ccccc1` (centres undefined), the Emax in the test on Aorta [1] is 112%. In addition, the EC50 with Aorta [2] worked out at 370 nM.

For `C[N+](C)(CCc1ccccc1)C(CCc1ccccc1)Cc1ccccc1` (centres undefined), the Emax with Aorta [1] amounted to 136%. Besides, the EC50 in the test on Aorta [2] stood at 1970 nM.

Consider `CCN(CCc1ccccc1)C(CCc1ccccc1)Cc1ccccc1` (centres undefined), for which the Emax with Aorta [1] came to 85%. Also, the EC50 in the test on Aorta [2] came out at 1210 nM.

As to `CCCC(Cc1ccccc1)NCCN1CCOCC1` (centres undefined), the Emax with Aorta [1] is 89.8%. In addition, the EC50 with Aorta [2] worked out at 2740 nM.

In the case of `CCCC(CC1CCCCC1)NCCN1CCCCC1` (centres undefined), in the test with Aorta [1], the maximum response (Emax) was found to be 88.4%. Further, the EC50 with Aorta [2] worked out at 220 nM.

For `CCCC(Cc1ccccc1)NCCc1cccs1` (centres undefined), the Emax with Aorta [1] is 134%. Also, the EC50 in the test with Aorta [2] amounted to 3500 nM.

Regarding `CCCC(Cc1ccccc1)NC1CCCC1` (centres undefined), the Emax in the test with Aorta [1] came to 116%. Besides, in the test with Aorta [2], the EC50 came out at 3090 nM.

As to `CN(CCc1ccccc1)C(CCc1ccccc1)Cc1ccccc1` (centres undefined), in the test on Aorta [1], the maximum response (Emax) is 93.5%. In addition, the EC50 with Aorta [2] was found to be 40 nM.

Regarding `CCCC(Cc1ccc(Cl)cc1)NCCc1ccccc1` (centres undefined), in the test on Aorta [1], the Emax came out at 114%. The EC50 in the test with Aorta [2] stood at 1950 nM.

For `c1ccc(CCC(Cc2ccccc2)N(CCc2ccccc2)CC2CC2)cc1` (centres undefined), in the test on Aorta [1], the maximal response (Emax) amounted to 75.4%. Further, the EC50 with Aorta [2] is 140 nM.

Regarding `CCC(Cc1ccccc1)NCCc1ccccc1` (centres undefined), the Emax in the test with Aorta [1] is 120%. For the same molecule, in the test with Aorta [2], the EC50 was determined as 1120 nM.

On to `CCC(CCc1ccco1)NCCN1CCCCC1` (centres undefined), for which, in the test with Aorta [1], the Emax stood at 97.8%. Besides, the EC50 with Aorta [2] was 420 nM.

On to `CCCNC(CCc1ccccc1)Cc1ccccc1` (centres undefined), for which the Emax in the test on Aorta [1] came to 121%. Further, the EC50 in the test on Aorta [2] was determined as 3830 nM.
